Source: patent US8772499B2, “TRPV3 modulators” (AbbVie Inc., priority 2011, dated 2014)
Read-outs that look alike come from different tables or passages of the source.

Tests used:
[1] = In vitro human microsomal stability assay; assay type: in vitro ADME
Method in brief: (§1)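 Compound is mixed with liver microsomes (human, or rat of the Sprague-Dawley strain). The mixture is then held at 37° C. in the presence of NADPH. Time-zero plates also receive NADPH.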

human TRPV3 = target: T1, human TRPV3 (Homo sapiens, UniProt Q8NET8); test: In vitro antagonism of recombinant human TRPV3 activation (FLIPR Tetra calcium assay); assay type: cell-based; conditions: HEK293 cells stably expressing human TRPV3, agonist 2-APB at 80 μM
T1 construct: expressed in transfected cells
T1 sequence (Q8NET8 1-790): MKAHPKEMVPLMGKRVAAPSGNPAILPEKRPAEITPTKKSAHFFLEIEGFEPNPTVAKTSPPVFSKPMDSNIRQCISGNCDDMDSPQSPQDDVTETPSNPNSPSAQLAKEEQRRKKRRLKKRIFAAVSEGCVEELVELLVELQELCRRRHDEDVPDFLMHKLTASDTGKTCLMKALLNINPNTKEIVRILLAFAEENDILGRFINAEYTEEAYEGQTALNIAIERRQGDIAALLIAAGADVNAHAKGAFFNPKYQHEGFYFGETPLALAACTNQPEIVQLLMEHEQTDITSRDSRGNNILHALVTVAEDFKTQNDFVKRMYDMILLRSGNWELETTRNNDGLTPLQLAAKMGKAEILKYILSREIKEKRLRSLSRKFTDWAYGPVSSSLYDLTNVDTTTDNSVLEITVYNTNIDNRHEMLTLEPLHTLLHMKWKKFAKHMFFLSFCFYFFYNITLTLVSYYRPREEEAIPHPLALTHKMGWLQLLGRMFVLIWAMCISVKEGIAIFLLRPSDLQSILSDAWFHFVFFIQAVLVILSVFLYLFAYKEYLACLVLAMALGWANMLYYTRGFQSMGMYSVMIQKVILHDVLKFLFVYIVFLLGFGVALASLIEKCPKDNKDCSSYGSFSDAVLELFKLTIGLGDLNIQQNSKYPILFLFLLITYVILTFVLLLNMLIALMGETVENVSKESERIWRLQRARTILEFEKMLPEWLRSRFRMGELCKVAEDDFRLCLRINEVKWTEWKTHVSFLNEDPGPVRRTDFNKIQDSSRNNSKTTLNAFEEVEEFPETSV
Method in brief: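 HEK293 cells stably expressing human TRPV3, loaded with Calcium-4 dye for 90–120 min, received compound in DPBS, then 80 μM 2-APB (EC80) 3 min later. Max-minus-min fluorescence expressed as % of 2-APB response without antagonist; IC50 values mostly averages of n≥2 runs.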

[2] = In vitro rat microsomal stability assay; assay type: in vitro ADME, rat (Sprague-Dawley)
Method in brief: as §1

[3] = human, microsomes, 0.5 h, 0.5 μM, pH 7.4
[4] = actual measured value shown parenthetically, in most cases average of at least two runs, read-out: IC50
[5] = Sprague-Dawley, rat, microsomes, 0.5 h, 0.5 μM, pH 7.4
[6] = reported range, read-out: IC50 (range class)

| Compound | HUMAN MICROSOMAL STABILITY (% REMAINING AFTER 30 MINUTES) [1, 3] | IC50 (human TRPV3; [4]) | RAT MICROSOMAL STABILITY (% REMAINING AFTER 30 MINUTES) [2, 5] | IC50 (human TRPV3; [6]) | HUMAN MICROSOMAL STABILITY (% REMAINING AFTER 30 MINUTES) ([1]; human liver microsomes, 0.5 μM substrate, 0.25 mg/mL microsomal protein, pH 7.4, 37° C., NADPH, 30 minutes) | RAT MICROSOMAL STABILITY (% REMAINING AFTER 30 MINUTES) ([2]; rat liver microsomes (Sprague-Dawley), 0.5 μM substrate, 0.25 mg/mL microsomal protein, pH 7.4, 37° C., NADPH, 30 minutes) |
| --- | --- | --- | --- | --- | --- | --- |
| OC(c1ccccn1)C1(c2cccc(OC(F)(F)F)c2)CCOCC1 (centres unmarked) [Example 66, pyridin-2-yl{4-[3-(trifluoromethoxy)phenyl]tetrahydro-2H-pyran-4-yl}-methanol] | 31% | 1520 nM | 23% |  |  |  |
| OC(c1ccccn1)C1(c2ccc(OC(F)(F)F)cc2)CCOCC1 (centres unmarked) [Example 67, pyridin-2-yl{4-[4-(trifluoromethoxy)phenyl]tetrahydro-2H-pyran-4-yl}-methanol] | 58% | 2600 nM | 47% |  |  |  |
| OC(CC1(c2cccc(C(F)(F)F)c2)CCC1)c1ccccn1 (centres unmarked) [Example 74, 1-(pyridin-2-yl)-2-{1-[3-(trifluoromethyl)phenyl]cyclobutyl}ethanol] | 6.8% | 410 nM | 0.45% |  |  |  |
| OC(CC1(c2ccc(C(F)(F)F)cc2)CCC1)c1ccccn1 (centres unmarked) [Example 75, 1-(pyridin-2-yl)-2-{1-[4-(trifluoromethyl)phenyl]cyclobutyl}ethanol] | 44% | 940 nM | 0.74% |  |  |  |
| OC(CC1(c2ccc(OC(F)(F)F)cc2)CCC1)c1ccccn1 (centres unmarked) [Example 76, 1-(pyridin-2-yl)-2-{1-[4-(trifluoromethoxy)phenyl]cyclobutyl}ethanol] | 39% | 650 nM | 0.47% |  |  |  |
| OC(CC1(c2cccc(OC(F)(F)F)c2)CCC1)c1ccccn1 (centres unmarked) [Example 77, 1-(pyridin-2-yl)-2-{1-[3-(trifluoromethoxy)phenyl]cyclobutyl}ethanol] | 11% | 760 nM | 0.94% |  |  |  |
| OC(c1ccccn1)C1(c2ccc(Cl)c(Cl)c2)CC(F)(F)C1 (centres unmarked) [Example 82, [1-(3,4-dichlorophenyl)-3,3-difluorocyclobutyl](pyridin-2-yl)methanol] | 35% | 780 nM | 16% |  |  |  |
| OC(c1ccccn1)C1(c2ccc(C(F)(F)F)nc2)CCC1 (centres unmarked) [Example 85, pyridin-2-yl{1-[6-(trifluoromethyl)pyridin-3-yl]cyclobutyl}methanol] | 82% | 5610 nM | 76% |  |  |  |
| OC(c1ccccn1)C1(c2ccc(Cl)c(Cl)c2)COC1 (centres unmarked) [Example 87, [3-(3,4-dichlorophenyl)oxetan-3-yl](pyridin-2-yl)methanol] | 47% | > 20000 nM | 8.6% | > 20000 nM |  |  |
| Cc1ccccc1C1(C(O)c2ccccn2)CCCO1 (centres unmarked) [Example 90, [2-(2-methylphenyl)tetrahydrofuran-2-yl](pyridin-2-yl)methanol] | 35% | 460 nM | <0.01% |  |  |  |
| Cc1cccc(C2(C(O)c3ccccn3)CCCO2)c1 (centres unmarked) [Example 91, [2-(3-methylphenyl)tetrahydrofuran-2-yl](pyridin-2-yl)methanol] | 46% | 330 nM | 1.0% |  |  |  |
| OC(c1ccccn1)C1(c2ccccc2F)CCCO1 (centres unmarked) [Example 102] |  | > 20000 nM |  | > 20000 nM | 45% | 0.55% |
| OC(c1ccccn1)C1(c2ccccc2F)CCCO1 (stereo not drawn) [Example 103, (syn)-[2-(2-fluorophenyl)tetrahydrofuran-2-yl](pyridin-2-yl)methanol] | 73% | 2000 nM | 0.012% |  |  |  |
| OC(c1ccccn1)C1(c2cncc(C(F)(F)F)c2)CCC1 (centres unmarked) [Example 110, pyridin-2-yl{1-[5-(trifluoromethyl)pyridin-3-yl]cyclobutyl}methanol] | 8.0% | 500 nM | 2.8% |  |  |  |
